Earlier results as cited in patent US20210134402A1, “METHODS AND SYSTEMS FOR PREDICTING SUCCESS RATES OF CLINICAL TRIALS” (THE TRUSTEES OF COLUMBIA UNIVERSITY IN THE CITY OF NEW YORK, priority 2018, published 2021).

Conditions: trial in follicular lymphoma

Nc1ccccc1NC(=O)c1ccc(CNc2nccc(-c3cccnc3)n2)cc1 [mocetinostat]
side effects observed in the trial: anaemia, neutropenia, nausea, and diarrhea
trial status: put on hold due to toxicity concerns
